Test system: 282377-053-R-J1-PDC complex spheroid viability
Assay: Anticancer human tumor 282377-053-R-J1-PDC patient-derived colon adenocarcinoma cell line growth inhibition [POLQ]
Details: for IC50: curve of first compound; for viability, T/C: stronger effect = lower value
Method in brief: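 Complex spheroid viability model combining PDC tumour cells with endothelial (HUVEC) and MSC stromal cells. Novobiocin, ART-558 or RP6685 were tested singly and in combination with standard and investigational anticancer drugs. Each was titrated in half-log steps from near clinical Cmax, or from 10 microM where Cmax was unknown.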

[1] = second compound 0.0316 µM, first compound 0.0316 µM
[2] = second compound 0.0316 µM, first compound 0.1 µM
[3] = second compound 0.0316 µM, first compound 0.316 µM
[4] = second compound 0.0316 µM, first compound 1 µM
[5] = second compound 0.0316 µM, first compound 3.16 µM
[6] = second compound 0.0316 µM, first compound 10 µM
[7] = second compound 0.1 µM, first compound 0.0316 µM
[8] = second compound 0.1 µM, first compound 0.1 µM
[9] = second compound 0.1 µM, first compound 0.316 µM
[10] = second compound 0.1 µM, first compound 1 µM
[11] = second compound 0.1 µM, first compound 3.16 µM
[12] = second compound 0.1 µM, first compound 10 µM
[13] = second compound 0.316 µM, first compound 0.0316 µM
[14] = second compound 0.316 µM, first compound 0.1 µM
[15] = second compound 0.316 µM, first compound 0.316 µM
[16] = second compound 0.316 µM, first compound 1 µM
[17] = second compound 0.316 µM, first compound 3.16 µM
[18] = second compound 0.316 µM, first compound 10 µM
[19] = second compound 1 µM, first compound 0.0316 µM
[20] = second compound 1 µM, first compound 0.1 µM
[21] = second compound 1 µM, first compound 0.316 µM
[22] = second compound 1 µM, first compound 1 µM
[23] = second compound 1 µM, first compound 3.16 µM
[24] = second compound 1 µM, first compound 10 µM
[25] = second compound 3.16 µM, first compound 0.0316 µM
[26] = second compound 3.16 µM, first compound 0.1 µM
[27] = second compound 3.16 µM, first compound 0.316 µM
[28] = second compound 3.16 µM, first compound 1 µM
[29] = second compound 3.16 µM, first compound 3.16 µM
[30] = second compound 3.16 µM, first compound 10 µM
[31] = second compound 10 µM, first compound 0.0316 µM
[32] = second compound 10 µM, first compound 0.1 µM
[33] = second compound 10 µM, first compound 0.316 µM
[34] = second compound 10 µM, first compound 1 µM
[35] = second compound 10 µM, first compound 3.16 µM
[36] = second compound 10 µM, first compound 10 µM
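Further: spheroids exposed to compounds for seven days.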
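Wherever viability, T/C is given: 100% = DMSO vehicle control viability.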

`CC1COCCN1c1cc(-c2ccnn2C)c2ccnc(-c3ccn[nH]3)c2n1` (stereo unspecified) + Cc1cccc(N(C)C(=O)C2C(O)CCN2c2nc(C)cc(C(F)(F)F)c2C#N)c1 showed an IC50 (second compound 0.0316 µM) of 0.381 µM, an IC50 (second compound 0.1 µM) of 0.551 µM and an IC50 (second compound 0.316 µM) of 0.289 µM. It also gave an IC50 (second compound 1 µM) of 0.362 µM, an IC50 (second compound 3.16 µM) of 0.479 µM and an IC50 (second compound 10 µM) of 0.634 µM. For the same compound, the viability, T/C [1] was 91.3%, the viability, T/C [2] was 86.4% and the viability, T/C [3] was 52.6%. For the same compound, the viability, T/C [4] was 32.6%, the viability, T/C [5] was 26.3% and the viability, T/C [6] was 24.5%. For the same compound, the viability, T/C [7] was 81.3%, the viability, T/C [8] was 80.9% and the viability, T/C [9] was 60.6%. For the same compound, the viability, T/C [10] was 37.4%, the viability, T/C [11] was 29.4% and the viability, T/C [12] was 23%. For the same compound, the viability, T/C [13] was 97%, the viability, T/C [14] was 90.2% and the viability, T/C [15] was 44.6%. The viability, T/C [16] was 38.4%, the viability, T/C [17] was 24.9% and the viability, T/C [18] was 21.9%. The viability, T/C [19] was 93.5%, the viability, T/C [20] was 68.5% and the viability, T/C [21] was 54.8%. It also gave a viability, T/C [22] of 36.2%, a viability, T/C [23] of 27.2% and a viability, T/C [24] of 22.7%. It also gave a viability, T/C [25] of 83.9%, a viability, T/C [26] of 70.4% and a viability, T/C [27] of 61.5%. For the same compound, the viability, T/C [28] was 33.1%, the viability, T/C [29] was 29.2% and the viability, T/C [30] was 22.5%. For the same compound, the viability, T/C [31] was 78.8%, the viability, T/C [32] was 71% and the viability, T/C [33] was 71.6%. For the same compound, the viability, T/C [34] was 35.8%, the viability, T/C [35] was 32.2% and the viability, T/C [36] was 20.8%.

With `CC1COCCN1c1cc(C2(S(C)(=N)=O)CC2)nc(-c2ccnc3[nH]ccc23)n1` (stereo unspecified) + Cc1cccc(N(C)C(=O)C2C(O)CCN2c2nc(C)cc(C(F)(F)F)c2C#N)c1 the IC50 (second compound 0.0316 µM) was 7.38 µM, the IC50 (second compound 0.1 µM) was over 10 µM and the IC50 (second compound 0.316 µM) was over 10 µM. For the same compound, the IC50 (second compound 1 µM) was over 10 µM, the IC50 (second compound 3.16 µM) was over 10 µM and the IC50 (second compound 10 µM) was 5.13 µM. The viability, T/C [1] was 113%, the viability, T/C [2] was 81.7% and the viability, T/C [3] was 108%. It also gave a viability, T/C [4] of 77.6%, a viability, T/C [5] of 66% and a viability, T/C [6] of 44%. The viability, T/C [7] was 98.3%, the viability, T/C [8] was 103% and the viability, T/C [9] was 77.5%. It also gave a viability, T/C [10] of 84.4%, a viability, T/C [11] of 71.8% and a viability, T/C [12] of 54.3%. The viability, T/C [13] was 91.3%, the viability, T/C [14] was 101% and the viability, T/C [15] was 80.8%. For the same compound, the viability, T/C [16] was 89.5%, the viability, T/C [17] was 98.2% and the viability, T/C [18] was 50.2%. The viability, T/C [19] was 107%, the viability, T/C [20] was 111% and the viability, T/C [21] was 83.6%. The viability, T/C [22] was 86.1%, the viability, T/C [23] was 69.5% and the viability, T/C [24] was 52.5%. The viability, T/C [25] was 93%, the viability, T/C [26] was 84.4% and the viability, T/C [27] was 123%. For the same compound, the viability, T/C [28] was 114%, the viability, T/C [29] was 64.9% and the viability, T/C [30] was 49.7%. It also gave a viability, T/C [31] of 90.6%, a viability, T/C [32] of 73.6% and a viability, T/C [33] of 89.1%. The viability, T/C [34] was 80.2%, the viability, T/C [35] was 55.4% and the viability, T/C [36] was 42.7%.

`CCCS(=O)(=O)Nc1ccc(F)c(C(=O)c2c[nH]c3ncc(-c4ccc(Cl)cc4)cc23)c1F` + Cc1cccc(N(C)C(=O)C2C(O)CCN2c2nc(C)cc(C(F)(F)F)c2C#N)c1 showed an IC50 (second compound 0.0316 µM) of over 10 µM, an IC50 (second compound 0.1 µM) of over 10 µM and an IC50 (second compound 0.316 µM) of over 10 µM. The IC50 (second compound 1 µM) was over 10 µM, the IC50 (second compound 3.16 µM) was over 10 µM and the IC50 (second compound 10 µM) was over 10 µM. It also gave a viability, T/C [1] of 95.1%, a viability, T/C [2] of 77.8% and a viability, T/C [3] of 73.6%. The viability, T/C [4] was 67.4%, the viability, T/C [5] was 76.2% and the viability, T/C [6] was 64.3%. It also gave a viability, T/C [7] of 91.8%, a viability, T/C [8] of 88.4% and a viability, T/C [9] of 66.3%. It also gave a viability, T/C [10] of 73.2%, a viability, T/C [11] of 75.7% and a viability, T/C [12] of 69.7%. The viability, T/C [13] was 92.5%, the viability, T/C [14] was 85.6% and the viability, T/C [15] was 73%. It also gave a viability, T/C [16] of 77.5%, a viability, T/C [17] of 70% and a viability, T/C [18] of 61.8%. For the same compound, the viability, T/C [19] was 86.9%, the viability, T/C [20] was 91.9% and the viability, T/C [21] was 90.5%. The viability, T/C [22] was 70.3%, the viability, T/C [23] was 68% and the viability, T/C [24] was 61.4%. The viability, T/C [25] was 92.1%, the viability, T/C [26] was 92.9% and the viability, T/C [27] was 72.1%. It also gave a viability, T/C [28] of 64.3%, a viability, T/C [29] of 61.5% and a viability, T/C [30] of 65%. It also gave a viability, T/C [31] of 81.6%, a viability, T/C [32] of 81.2% and a viability, T/C [33] of 77.1%. It also gave a viability, T/C [34] of 62.8%, a viability, T/C [35] of 73.5% and a viability, T/C [36] of 58.4%.

Source: PubChem BioAssay AID1963852 (Molecular Pharmacology Branch, DTP, NCI, 2024)
